Data published in patent US12258337B2, “Bicyclic CX3CR1 receptor agonists” (Board of Regents, The University of Texas System, priority 2019, dated 2025).

Columns and labels:
Type in all cases: cell-based
mCX3CR1 = biological target: T1, mCX3CR1 (Mus musculus, UniProt Q9Z0D9); experiment: Ga16 assay, CX3CR1 agonism, Ca2+ sensitive photo-protein readout (FLIPRTETRA); conditions: mouse CX3CR1 cell line
T1 construct: expressed in transfected cells; stably expresses a Ca2+ sensitive photo-protein
T1 sequence (Q9Z0D9 1-354): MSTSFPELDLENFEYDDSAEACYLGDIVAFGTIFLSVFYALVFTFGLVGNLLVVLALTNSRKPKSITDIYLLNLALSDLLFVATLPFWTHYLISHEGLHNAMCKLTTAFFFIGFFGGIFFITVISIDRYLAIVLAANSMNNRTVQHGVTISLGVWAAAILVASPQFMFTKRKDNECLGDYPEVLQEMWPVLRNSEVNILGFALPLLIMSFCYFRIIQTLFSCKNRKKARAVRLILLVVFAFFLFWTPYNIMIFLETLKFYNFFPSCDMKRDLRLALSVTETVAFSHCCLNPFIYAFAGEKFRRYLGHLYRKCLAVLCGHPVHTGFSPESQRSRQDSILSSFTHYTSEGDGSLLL
Experimental: (§1) Compounds (as well as stereoisomer(s) thereof and/or salt(s) thereof) were tested for CX3CR1 agonism in a cell based assay with fluorescent readout in Agonist Mode in dose response in quadruplicate with intra-plate modality).
(§2) Buffers and reagents. PBS (D-PBS without calcium and magnesium; EuroClone); Trypsin (Trypsin 0.05%, EDTA 0.02% in PBS; EuroClone); DMSO (Sigma); Standard tyrode buffer: in-house solution (130 mM NaCl, 5 mM KCl, 2 mM CaCl2), 1 mM MgCl2, 5 mM NaHCO3, 20 mM HEPES in water at pH 7.4; sterile filtered); Coelenterazine, native (Biosynth); stock 10 mM; Agonist: Recombinant Human Fractalkine (CX3CL1) (PeproTech); stock: 10 μM in standard tyrode buffer+BSA 0.1%; stored at −20° C.
(§3) Cell line. Human (hCX3CR1), mouse (mCX3CR1), and rat (rCX3CR1) were used for the assay.
(§4) Assay protocol. Experiments ere performed in 384 MTP format. Cells were seeded at 7,500 cells/well in 25 μl/well complete growth medium without selection antibiotics in 384-well plates. Twenty-four hours later, cells ere assayed for the response to various compounds using the Ca^2+ sensitive photo-protein stably expressed in the cells as readout.
(§5) The experiment was performed in a 384-well format according to the following procedure: • 24h after seeding, pre-incubate the cells at room temperature for 1 hour. • Then remove the culture medium. • Load cells with 20 μL/well of standard tyrode buffer+10 μM ceolenterazine. • Incubate cell plates for 3 hours at RT. • Inject 10 μL/w of 3× concentrated test compounds and controls in assay buffer at the FLIPRTETRA and monitor the kinetic response over a period of 90 seconds.
(§6) Data from FLIPRTETRA measurements were analyzed with the Genedata Screener© software. The following examples are meant to illustrate, but in no way to limit, the claimed invention.

rCX3CR1 = biological target: T2, rCX3CR1 (Rattus norvegicus, UniProt P35411); experiment: as above; conditions: rat CX3CR1 cell line
T2 construct: expressed in transfected cells; stably expresses a Ca2+ sensitive photo-protein
T2 sequence (P35411 1-354): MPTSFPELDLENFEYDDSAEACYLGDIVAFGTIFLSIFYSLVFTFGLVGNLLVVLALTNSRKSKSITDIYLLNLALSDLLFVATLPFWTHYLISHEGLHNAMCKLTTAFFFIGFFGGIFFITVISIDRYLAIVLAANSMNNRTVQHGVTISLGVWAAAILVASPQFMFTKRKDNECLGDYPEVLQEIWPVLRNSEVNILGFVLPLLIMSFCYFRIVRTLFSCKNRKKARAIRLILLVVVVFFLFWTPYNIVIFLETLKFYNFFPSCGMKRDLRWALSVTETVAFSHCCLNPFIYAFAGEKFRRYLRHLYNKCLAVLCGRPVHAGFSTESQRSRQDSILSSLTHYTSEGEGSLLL
Experimental: as §1, §2, §3, §4, §5, §6

hCX3CR1 [1] = biological target: T3, hCX3CR1 (Homo sapiens, UniProt P49238); experiment: as above; design: expressed in transfected cells; stably expresses a Ca2+ sensitive photo-protein; conditions: human CX3CR1 cell line
T3 sequence (P49238 1-355): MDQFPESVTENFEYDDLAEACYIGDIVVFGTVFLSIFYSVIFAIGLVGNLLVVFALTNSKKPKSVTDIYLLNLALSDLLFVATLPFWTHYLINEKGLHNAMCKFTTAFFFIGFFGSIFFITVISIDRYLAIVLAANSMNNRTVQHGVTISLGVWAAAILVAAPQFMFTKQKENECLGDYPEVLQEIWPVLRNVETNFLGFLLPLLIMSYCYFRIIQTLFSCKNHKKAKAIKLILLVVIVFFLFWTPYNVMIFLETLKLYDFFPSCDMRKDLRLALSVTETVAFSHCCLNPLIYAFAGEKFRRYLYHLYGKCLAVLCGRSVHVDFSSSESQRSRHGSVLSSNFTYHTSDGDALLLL
Experimental: as §1, §2, §3, §4, §5, §6

hCX3CR1 [2] = biological target: T3, hCX3CR1; experiment: ChAMPion assay (CHO ChAMPion/CX3CR1 K1.6, cAMP/CNG channel, photoprotein luminescence); design: expressed in transfected cells; stably expresses a Ca2+ sensitive photo-protein; conditions: ChAMPion assay, CHO ChAMPion/CX3CR1 K1.6, Forskolin 3 μM; read-out: hCX3CR1 agonism EC50
Experimental: Buffers and reagents. PBS (D-PBS without calcium and magnesium; EuroClone); Trypsin (Trypsin 0.05%, EDTA 0.02% in PBS; EuroClone); DMSO (Sigma); Tyrode buffer Ca^2+ free: in-house solution (130 mM NaCl, 5 mM KCl, 1 mM MgCl^2, 5 mM NaHCO3, 20 mM HEPES (pH 7.4); sterile filtered and autoclaved); Tyrode buffer 10 mM Ca^2+: in-house solution (130 mM NaCl, 5 mM KCl, 10 mM CaCl2), 1 mM MgCl2, 5 mM NaHCO3, 20 mM HEPES, in water at pH 7.4, sterile filtered); Coelenterazine, native (Biosynth); stock 10 mM; Agonist: Recombinant Human Fractalkine (CX3CL1) (PeproTech); stock: 10 μM in standard Tyrode buffer/BSA 01%; stored at −20° C.
Cell line. The final clone for the hCX3CR1 assay was CHO ChAMPion/CX3CR1 K1.6. ChAMPion technology is based on the co-expression of a Ca^2+ sensitive photoprotein and of a cyclic nucleotide-gated (CNG) channel acting as a cAMP biosensor in a CHO-K1 cell line. CNG channels are non-selective ligand gated cation channels that can be opened by the direct interaction with either cAMP or cGMP, at the intracellular C-terminus site of the channel. Channel opening allows the flux of extracellular calcium into the cell cytoplasm and its transient elevation can be recorded by means of several different calcium indicators. In the chAMPion system, the CNG channel has been modified to display sensitivity to cAMP levels in the physiological range. In addition the calcium influx through the opened channel is immediately detected by the recording of the photoprotein-emitted flash type luminescence signal.
The chAMPion cell line system can monitor the activation of transfected Gαi-coupled receptors, which elicit changes in 3,‘5’-adenosine cyclic monophosphate (cAMP) levels, which in turn is responsible for CNG opening and consequent Ca^2+ influx.
as §4, with “Experiments were” for “Experiments ere”, “at 10,000” for “at 7,500”, “25 μL/well” for “25 μl/well”, “cells were” for “cells ere”
The experiment was performed in a 384-well format according to the following procedure: • 24h after seeding, pre-incubate the cells at room temperature for 1 hour. • Then remove the culture medium. • Load cells with 20 μL/well of Ca^2+ free tyrode buffer+ceolenterazine 5 μM. • Incubate cell plates for 4 hours at RT. • 10 μl/well of 3× concentrated compounds in Ca^2+ free tyrode buffer+Forskolin 9 μM (final Forskolin concentration=3 μM) are applied to the cells (at 10 μl/s). Ten minutes later a second injection is performed: 10 μl/well of Ca^2+ free tyrode buffer+BSA 0.04% (final BSA concentration=0.01%). Twenty minutes later a third injection is performed: 20 μl/well of 10 mM Ca^2+ tyrode buffer (final Ca^2+ concentration was 3.3 mM) and luminescence is recorded for 90 seconds.
(§7) Data from FLIPRTETRA measurements are analyzed with the Genedata Screener© software.

hCX3CR1 [3] = biological target: T3, hCX3CR1; experiment: Suchi5 assay (HEK/NatClytin/CNG/Suchi5 transiently transfected hCX3CR1, Fluo-8 Ca2+ readout); design: expressed in transfected cells; stably expresses a Ca2+ sensitive photo-protein; conditions: Suchi5 assay, HEK/NatClytin/CNG/Suchi5 transfected with hCX3CR1; read-out: hCX3CR1 agonism EC50
Experimental: Buffers and reagents. PBS (D-PBS without calcium and magnesium; EuroClone); Trypsin (Trypsin 0.05%, EDTA 0.02% in PBS; EuroClone); Opti-MEM medium (Thermo Fisher); DMSO (Sigma); Standard tyrode buffer: in-house solution (130 mM NaCl, 5 mM KCl, 2 mM CaCl2), 1 mM MgCl2, 5 mM NaHCO3, 20 mM HEPES in water at pH 7.4; sterile filtered); Screen Quest™ Fluo-8 No Wash Calcium Assay Kit (AAt Bioquest®); Lipofectamine® 2000 Reagent (Thermo Fisher); Agonist: Recombinant Human Fractalkine (CX3CL1) (PeproTech); stock: 10 μM in standard Tyrode buffer/BSA 01%; stored at −20° C.
Cell line. The final cell line for CX3CR1-Suchi5 assay is HEK/NatClytin/CNG/Suchi5 transiently transfected hCX3CR1 cDNA. In this cell line native Gαi signaling is switched to Gαq pathway thanks to the overexpression of a Gαiq chimeric G protein (called Suchi5) to direct Gαi activation towards Ca^2+ release for measurement.
Assay protocol. Experiments are performed in 384 MTP format. Transiently transfected cells are seeded at 20,000 cells/well in 25 μl/well Opti-MEM medium without selection antibiotics in 384-well plates. 4-5-hours later 25 μL/well of complete medium with 20% of FBS are added to the cells. Twenty-four hours later, cells are assayed for the response to various compounds using a fluorescent Ca^2+ sensitive dye (FLUO8-No Wash Dye) as readout.
The experiment is performed in a 384-well format according to the following procedure: • 24h after seeding, remove the culture medium. • Load cells with 20 μL/well of 0.5X FLUO-8 No Wash Dye diluted in assay buffer. • Incubate cell plates for 1 hour at RT. • Inject 10 μL/w of 3× concentrated test compounds and controls in assay buffer at the FLIPRTETRA and monitor the kinetic response over a period of 90 seconds.
as §7

| EC50 (mCX3CR1) [µM] | EC50 (rCX3CR1) [µM] | EC50 (hCX3CR1 [1]) [µM] | EC50 (hCX3CR1 [2]) [µM] | EC50 (hCX3CR1 [3]) [µM] | Compound |
| --- | --- | --- | --- | --- | --- |
| 75.1 | 77.2 | 21 | 30 |  | CC(CNC(=O)c1cc2c(s1)CCCCCC2)CN(C)C (stereo not drawn) [Example 3, N-[3-(dimethylamino)-2-methylpropyl]-4,5,6,7,8,9-hexahydrocycloocta[b]thiophene-2-carboxamide] |
| 16.2 | 15.4 | 14.6 | 2.8 |  | O=C(NCC1(CN2CCCC2)CC1)c1cc2c(s1)CCCCCC2 [Example 4, N-[[1-(pyrrolidin-1-ylmethyl)cyclopropyl]methyl]-4,5,6,7,8,9-hexahydrocycloocta[b]thiophene-2-carboxamide] |
| 18.1 | 14.6 | 15.1 | 4.5 |  | CCCN(C)CC1(CNC(=O)c2cc3c(s2)CCCCCC3)CCCC1 [Example 6, N-[[1-[[methyl(propyl)amino]methyl]cyclopentyl]methyl]-4,5,6,7,8,9-hexahydrocycloocta[b]thiophene-2-carboxamide] |
| 26.1 | 44.5 | 15.7 | 9.9 |  | CN(C)CC(C)(C)CN(C)C(=O)c1cc2c(s1)CCCCCC2 [Example 7, N-[3-(dimethylamino)-2,2-dimethylpropyl]-N-methyl-4,5,6,7,8,9-hexahydrocycloocta[b]thiophene-2-carboxamide] |
| 17.1 | 20 | 16.2 | 11.2 |  | CCC(CC)(CNC(=O)c1cc2c(s1)CCCCCC2)CN(C)C [Example 8, N-[2-[(dimethylamino)methyl]-2-ethylbutyl]-4,5,6,7,8,9-hexahydrocycloocta[b]thiophene-2-carboxamide] |
| 9.2 | 7.4 | 6 |  | 8.2 | O=C(NCC1(CN2CCCC(O)C2)CCC1)c1cc2c(s1)CCCCCC2 (stereo not drawn) [Example 65, N-[[1-[(3-hydroxypiperidin-1-yl)methyl]cyclobutyl]methyl]-4,5,6,7,8,9-hexahydrocycloocta[b]thiophene-2-carboxamide] |
| 20.4 | 11.4 | 16 |  | 7.2 | O=C(NCC1(CN2CCC(O)C2)CCC1)c1cc2c(s1)CCCCCC2 (stereo not drawn) [Example 66, N-[[1-[(3-hydroxypyrrolidin-1-yl)methyl]cyclobutyl]methyl]-4,5,6,7,8,9-hexahydrocycloocta[b]thiophene-2-carboxamide] |
| 87.1 | 78.9 | 18.3 |  | 14.4 | CC(C)(CNC(=O)c1cc2c(s1)CCCCCC2)CN1CCC(C)(O)CC1 [Example 67, N-[3-(4-hydroxy-4-methylpiperidin-1-yl)-2,2-dimethylpropyl]-4,5,6,7,8,9-hexahydrocycloocta[b]thiophene-2-carboxamide] |
| > 100 | 63 | 19.7 |  | 19.5 | CC(C)(CNC(=O)c1cc2c(s1)CCCCCC2)CN1CCC(O)C(C)(C)C1 (stereo not drawn) [Example 68, N-[3-(4-hydroxy-3,3-dimethylpiperidin-1-yl)-2,2-dimethylpropyl]-4,5,6,7,8,9-hexahydrocycloocta[b]thiophene-2-carboxamide] |
